Patent US12053527B2, “Compositions with permeation enhancers for drug delivery” (priority 2015, dated 2024)
One block for each compound: values may come before it.

Columns and labels:
[1] = Linear oscillatory shear rheology (gelation temperature, storage and loss moduli); conditions: for effect on plateau values of G′ and G″ / mechanical properties and gelation temperature: CPE added separately to Cip-18% [P407-PBP]; for reduction of gelation temperature: CPE added separately to Cip-18% [P407-PBP] (1% SDS, 2% limonene or 0.5% bupivacaine)
[2] = Ex vivo permeation of ciprofloxacin across the tympanic membrane
[3] = test system: S. pneumoniae; conditions: cited from earlier work
[4] = Pharmacokinetics in the OM model: ciprofloxacin in middle ear fluid and plasma; type: in vivo, chinchilla; conditions: animals treated with the standard formulation
[5] = test system: non-typable H. influenzae (NTHi); conditions: cited from earlier work
[6] = 2% limonene added to Cip-18% [P407-PBP]

effect on plateau values of G′ and G″ / mechanical properties and gelation temperature [1]: minimal effects
SMILES: CCCCN1CCCCC1C(=O)Nc1c(C)cccc1C (centres unmarked) [Bupivacaine]

SMILES: C=C(C)[C@H]1CC=C(C)CC1 [limonene]
concentration-dependent increase in ciprofloxacin transfer ([2]; 48 hours, limonene added): two-to-three-fold | time at which ciprofloxacin was detected in the receiving buffer ([2]; limonene added to ciprofloxacin): 1 to 2 h | decrease of G″ [1, 6]: 4.1 kPa | increase of G′ [1, 6]: 10.5 kPa | reduction of gelation temperature [1]: 14 °C

SMILES: O=C(O)c1cn(C2CC2)c2cc(N3CCNCC3)c(F)cc2c1=O [ciprofloxacin]
MIC for S. pneumoniae [3]: 0.5 to 4 µg/mL | minimum inhibitory concentration for S. pneumoniae middle ear infections [3]: about 4 μg/mL | ciprofloxacin in the blood [4]: undetectable | MIC for non-typable H. influenzae (NTHi) [5]: <0.1 to 0.5 µg/mL | minimum inhibitory concentration (MIC) of NTHi [5]: 0.1 to 0.5 µg/mL | minimum inhibitory concentration for H. influenza middle ear infections [5]: about 4 μg/mL

effect on plateau values of G′ and G″ / mechanical properties and gelation temperature [1]: did not affect | reduction of gelation temperature [1]: ~1.5 °C
SMILES: CCCCCCCCCCCCOS(=O)(=O)[O-].[Na+] [SDS, Sodium dodecyl sulfate]
